Data set [1] in a line: Apparent permeability of the compound across apical side to basolateral side in human Caco2 cells. The class given is ADME, cell-based. To be noted: Caco-2.
A short description of data set [2]: Intrinsic clearance in human microsomes assessed […]. The format is ADME, Microsome.
A short description of data set [3]: Half life in human microsomes. The format is ADME, Microsome.
Data set [4] can be described thus: Half life in mouse hepatocytes. The class given is ADME, cell-based, Hepatocyte.
In data set [5] the target is Voltage-gated inwardly rectifying potassium channel KCNH2 (Homo sapiens, UniProt Q12809). The experiment in a line: Inhibition of human ERG by patch clamp assay.
A short description of data set [6]: Clearance in mouse. The class given is ADME, organism-based. The conditions noted are these: in vivo.
The nature of data set [7]: Volume of distribution in mouse. The class given is ADME, organism-based. To be noted: in vivo.
For another data set, the system named is Mus musculus. The experiment in a line: AUC in iv dosed mouse. The format is ADME, organism-based. The conditions noted are these: in vivo.
Data set [8] can be described thus: Half life in iv dosed mouse. The format is ADME, organism-based. The conditions noted are these: in vivo.
A short description of data set [9]: Half life in po dosed mouse. The format is ADME, organism-based. To be noted: in vivo.
Data set [10] can be described thus: Fraction unbound in mouse. The conditions noted are these: in vivo. The class given is ADME, organism-based.
Data set [11] is described as follows: Oral bioavailability in mouse. To be noted: in vivo. The class given is ADME, organism-based.

Chain of Voltage-gated inwardly rectifying potassium channel KCNH2 (Q12809 whole entry): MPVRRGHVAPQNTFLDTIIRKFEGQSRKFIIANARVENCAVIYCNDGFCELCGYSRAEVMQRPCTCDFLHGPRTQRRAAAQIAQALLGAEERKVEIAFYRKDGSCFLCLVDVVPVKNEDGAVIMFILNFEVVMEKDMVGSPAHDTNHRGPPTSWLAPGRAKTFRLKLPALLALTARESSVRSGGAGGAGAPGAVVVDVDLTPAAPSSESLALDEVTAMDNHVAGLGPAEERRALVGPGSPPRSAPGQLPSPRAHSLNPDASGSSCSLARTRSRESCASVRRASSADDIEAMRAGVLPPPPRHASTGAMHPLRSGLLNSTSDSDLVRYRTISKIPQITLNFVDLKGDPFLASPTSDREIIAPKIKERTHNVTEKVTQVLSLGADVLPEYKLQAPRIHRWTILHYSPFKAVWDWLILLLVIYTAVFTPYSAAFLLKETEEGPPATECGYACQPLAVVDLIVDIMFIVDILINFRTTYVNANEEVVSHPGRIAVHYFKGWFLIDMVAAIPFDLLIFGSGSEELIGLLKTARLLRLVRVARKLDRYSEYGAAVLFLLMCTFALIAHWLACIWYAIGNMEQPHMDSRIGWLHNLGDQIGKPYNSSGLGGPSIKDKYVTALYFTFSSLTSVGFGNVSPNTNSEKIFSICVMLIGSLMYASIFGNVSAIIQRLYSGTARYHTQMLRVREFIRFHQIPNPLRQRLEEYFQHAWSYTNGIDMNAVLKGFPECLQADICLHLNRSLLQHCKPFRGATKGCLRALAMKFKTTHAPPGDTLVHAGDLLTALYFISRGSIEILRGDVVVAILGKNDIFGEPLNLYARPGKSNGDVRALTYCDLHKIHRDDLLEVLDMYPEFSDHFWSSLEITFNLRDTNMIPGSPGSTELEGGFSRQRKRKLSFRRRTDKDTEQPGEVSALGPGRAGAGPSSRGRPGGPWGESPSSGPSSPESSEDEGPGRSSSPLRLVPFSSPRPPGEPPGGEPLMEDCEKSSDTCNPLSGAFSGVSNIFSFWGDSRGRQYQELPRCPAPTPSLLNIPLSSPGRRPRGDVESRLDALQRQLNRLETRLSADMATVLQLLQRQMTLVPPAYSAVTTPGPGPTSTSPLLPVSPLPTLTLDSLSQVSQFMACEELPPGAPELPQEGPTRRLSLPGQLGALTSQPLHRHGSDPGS

Take `N#Cc1ccc(-n2nc(C(=O)N3CCC[C@@H](N)C3)cc2OCC(O)C(F)(F)F)cc1` (some centres undefined): the Papp A→B in data set [1] was below 0.1 ×10⁻⁶ cm/s. The CL in data set [2] turned out to be 5.6 µL/min. In data set [3], the half-life was 4.17 h.
Consider `Cc1cc(COc2cc(C(=O)N3CCC[C@@H](N)C3)nn2-c2ccc(C#N)cc2)on1`, for which, in data set [1], the apical-to-basolateral permeability (Papp A→B) is 0.73 ×10⁻⁶ cm/s. For the same molecule, the CL in [2] was 6.91 µL/min. Also, the figures for the half-life in data set [3] and in data set [4] were 3.35 h and 1.13 h, respectively.
Regarding `Cc1ccc(-c2ncc(OC[C@H]3CCNC3)cc2-c2ccc(C#N)cc2)cc1`, the IC50 in data set [5] came to 3 µM.
The molecule `CCc1cc(COc2cc(C(=O)N3CCC[C@@H](N)C3)nn2-c2ccc(C#N)cc2)on1` gave a clearance in data set [6] of 45.7 mL/min/kg. In addition, in data set [7], the Vd is 3.1 L/kg. For the same molecule, the Papp A→B in data set [1] amounted to 0.415 ×10⁻⁶ cm/s. The molecule also had a CL in data set [2] of 5.6 µL/min. The half-life was 4.17 h in data set [3], 2.02 h in [4], 0.9 h in [8] and 1.3 h in data set [9]. The AUC in the data set with Mus musculus came out at 0.405 µg/h/mL. The molecule further showed a free fraction (fraction unbound) in data set [10] of 0.19. The bioavailability in [11] came to 38%.

The values above are taken from ChEMBL document CHEMBL4020789, “Development of 5-hydroxypyrazole derivatives as reversible inhibitors of lysine specific demethylase 1” (Bioorg Med Chem Lett, 2017).
